# Reference: US20090215732A1, “COMBINATION OF COMPOUNDS, WHICH CAN BE USED IN THE TREATMENT OF RESPIRATORY DISEASES, ESPECIALLY CHRONIC OBSTRUCTIVE PULMONARY DISEASE (COPD) AND ASTHMA” (priority 2005, published 2009)
# Assay: Estimated solubility of the salt in organic solvents
# Assay type: physicochemical
# Experimental: (b) The Form B salt described in (a) above was also prepared by dissolving, in a vial, 20% w of a sample of the benzoate salt prepared by the method of Example 1(b) (Form A) in a solvent such as methanol (>20 mg/ml), ethanol (>20 mg/ml), n-propanol (>20 mg/ml), isopropanol (8.5 mg/ml) or acetone (9.6 mg/ml). The figures in brackets indicate the estimated solubility of the salt in these solvents. The vial was then sealed and the suspension was homogenised at ambient temperature (20° C.) using a magnet. Stirring and temperature were maintained for a period of at least 7 days after which time a sample of the material obtained was dried and tested by XRPD. XRPD confirmed that there had been complete transformation of Form A to Form B.
# (a) Form B was prepared by dissolving, in a vial, 20% w of a sample of the furoate salt prepared by the method of Example 1(b) (Form A) in a solvent such as ethanol (16 mg/ml) or 2-butanol (8 mg/ml). The figures in brackets indicate the estimated solubility of the salt in these solvents. The vial was then sealed and the suspension was homogenised at ambient temperature (20° C.) using a magnet. Stirring and temperature were maintained for a period of at least 7 days after which time a sample of the material obtained was dried and tested by XRPD. XRPD confirmed that there had been complete transformation of Form A to Form B.
estimated solubility of the salt (solvent acetone),estimated solubility of the salt (solvent ethanol),estimated solubility of the salt (solvent isopropanol),estimated solubility of the salt (solvent methanol),estimated solubility of the salt (solvent n-propanol),estimated solubility of the salt (solvent 2-butanol),SMILES
9.6 mg/mL,> 20 mg/mL,8.5 mg/mL,> 20 mg/mL,> 20 mg/mL,–,"CC(=O)Nc1ccc(O)cc1OC[C@@](C)(O)CNC1CCN(Cc2ccc(Cl)cc2)CC1.O=C(O)c1ccccc1 [Example 1(b), N-{2-[((2S)-3-{[1-(4-chlorobenzyl)piperidin-4-yl]amino}-2-hydroxy-2-methylpropyl)oxy]-4-hydroxyphenyl}acetamide benzoate (1:1 salt), Form A]"
–,16 mg/mL,–,–,–,8 mg/mL,"CC(=O)Nc1ccc(O)cc1OC[C@@](C)(O)CNC1CCN(Cc2ccc(Cl)cc2)CC1.O=C(O)c1ccco1 [Example 1(c), N-{2-[((2S)-3-{[1-(4-chlorobenzyl)piperidin-4-yl]amino}-2-hydroxy-2-methylpropyl)oxy]-4-hydroxyphenyl}acetamide furoate (1:1 salt), Form A]"
